Where a SMILES comes first, the peptide text is derived from it.
Assays:
[1] = system: Fusarium graminearum PH-1
pathogenic fungi = details: pure protein added to in vitro antifungal assay medium; cited from earlier work

Molecule | IC100 (concentration required for 100% inhibition of fungal growth) [1] | IC50 ([1]; 24 h) | Growth inhibition of pathogenic fungi in vitro (pathogenic fungi)
C[C@H](NC(=O)CN)C(=O)N[C@@H](CS)C(=O)N[C@@H](Cc1c[nH]cn1)C(=O)N[C@@H](CCCNC(=N)N)C(=O)N[C@@H](CCC(N)=O)C(=O)NCC(=O)N[C@@H](Cc1ccccc1)C(=O)NCC(=O)N[C@@H](Cc1ccccc1)C(=O)N[C@@H](C)C(=O)N[C@@H](CS)C(=O)N[C@@H](Cc1ccccc1)C(=O)N[C@@H](CS)C(=O)N[C@@H](Cc1ccc(O)cc1)C(=O)N[C@@H](CCCCN)C(=O)N[C@@H](CCCCN)C(=O)N[C@@H](CS)C(=O)O [GMA-5C, GACHRQGFGFACFCYKKC] (H-GACHRQGFGFACFCYKKC-OH; N-terminus and C-terminus assumed) | about 24 μM | 6 to 12 µM | 
Rs-AFP1: small cysteine-rich protein isolated from radish seed (QKLCERPSGTWSGVCGNNNACKNQCINLEKARHGSCNYVFPAHKCICYFPC; UniProt P69241 30-80, looked up) |  |  | inhibited the growth of many pathogenic fungi
Rs-AFP2: small cysteine-rich protein isolated from radish seed (QKLCQRPSGTWSGVCGNNNACKNQCIRLEKARHGSCNYVFPAHKCICYFPC; UniProt P30230 30-80, looked up) |  |  | inhibited the growth of many pathogenic fungi
